Assays:
[1] = biological target: T1, Protein ENL (Homo sapiens, UniProt Q03111); assay: Inhibition of C-terminal 6xHis-tagged ENL YEATS domain (1 to 148 residues) (unknown origin) expressed in Escherichia coli BL21(DE3) cells using biotin-H3K27ace as substrate incubated for 45 mins by alpha screen assay
T1 sequence (Q03111 whole entry): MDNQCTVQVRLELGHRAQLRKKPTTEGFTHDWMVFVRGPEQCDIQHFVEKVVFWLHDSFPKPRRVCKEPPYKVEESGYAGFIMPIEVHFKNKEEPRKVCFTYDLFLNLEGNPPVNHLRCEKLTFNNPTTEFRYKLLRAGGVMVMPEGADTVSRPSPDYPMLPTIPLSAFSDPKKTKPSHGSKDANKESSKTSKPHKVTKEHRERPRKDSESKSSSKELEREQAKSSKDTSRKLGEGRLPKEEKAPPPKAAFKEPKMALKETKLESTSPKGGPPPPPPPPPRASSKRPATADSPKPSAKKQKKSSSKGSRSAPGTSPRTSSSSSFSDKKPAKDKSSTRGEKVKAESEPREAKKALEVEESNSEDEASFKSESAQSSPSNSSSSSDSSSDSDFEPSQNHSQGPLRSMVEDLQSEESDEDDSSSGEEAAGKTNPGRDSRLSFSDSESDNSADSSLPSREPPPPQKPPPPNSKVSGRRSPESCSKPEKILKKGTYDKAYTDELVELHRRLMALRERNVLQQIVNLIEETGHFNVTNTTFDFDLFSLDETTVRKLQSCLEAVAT

[2] = biological target: T2, Protein ENL (Homo sapiens) (UniProt Q03111); details: dose 333.0 nM, time 45.0 min
T2 sequence (whole entry): T1 sequence (Q03111 whole entry)

[3] = biological target: T2, Protein ENL (Homo sapiens); details: dose 111.0 nM, time 45.0 min
[4] = biological target: T1, Protein ENL; assay: Inhibition of recombinantC-terminal 6xHis-tagged ENL YEATS domain (1 to 148 residues) (unknown origin) expressed in Escherichia coli BL21(DE3) cells using H3(13-32)K27cr as substrate by FRET assay
[5] = biological target: T1, Protein ENL; assay: Binding affinity toC-terminal 6xHis-tagged ENL YEATS domain (1 to 148 residues) (unknown origin) assessed as dissociation constant by BLI assay

SMILES	IC50 [1] [nM]	inhibition [2] [%]	inhibition [3] [%]	IC50 [4] [nM]	Kd [5] [nM]
CCCCn1ncc2cc(C(=O)Nc3ccc4[nH]c(CN5CCC[C@@H]5C)nc4c3)ccc21	17	100	98	–	–
C[C@H]1CCCN1Cc1nc2cc(NC(=O)c3ccc4nn(CCN)cc4c3)ccc2[nH]1	17.2	98.4	84.1	–	–
Cc1nnc2ccc(C(=O)Nc3ccc4[nH]c(CN5CCC[C@@H]5C)nc4c3)cn12	267	84.5	57	–	–
C[C@H]1CCCN1Cc1nc2cc(NC(=O)c3ccc4c5ccccc5c(=O)n(C)c4c3)ccc2[nH]1	31.8	100	99.2	–	–
CCCCn1cc2cc(C(=O)Nc3ccc4[nH]c(CN5CCC[C@@H]5C)nc4c3)ccc2n1	35.3	100	98.4	–	–
C[C@H]1CCCN1Cc1nc2cc(NC(=O)c3ccc4c5ccccc5n(C)c4c3)ccc2[nH]1	72.2	96.5	85.4	–	–
C[C@H]1CCCN1Cc1nc2cc(NC(=O)c3ccc4c(c3)c3cc(F)ccc3c(=O)n4C)ccc2[nH]1	22.1	99.2	90.8	–	–
Cc1cccc2c(=O)n(C)c3ccc(C(=O)Nc4ccc5[nH]c(CN6CCC[C@@H]6C)nc5c4)cc3c12	46.4	95.6	63.2	–	–
C[C@H]1CCCN1Cc1nc2cc(NC(=O)c3ccc4c(cnn4CCNC(=O)c4ccccc4)c3)ccc2[nH]1	19.2	99	86.2	–	–
C[C@H]1CCCN1Cc1nc2cc(NC(=O)c3ccc4c(cnn4CCN4CC(O)C(O)C4C(O)CO)c3)ccc2[nH]1 (stereo partly specified)	32.3	99.3	84.6	–	–
Cc1ccccc1C(=O)NCCn1ncc2cc(C(=O)Nc3ccc4[nH]c(CN5CCC[C@@H]5C)nc4c3)ccc21	35.4	96.1	68.4	–	–
O=C(/C=C/c1ccc(-n2ccnc2)cc1)N1CCN(C(=O)c2ccco2)CC1	–	–	–	19000	14000
CCn1ncc2cc(C(=O)Nc3ccc4[nH]c(CN5CCC[C@@H]5C)nc4c3)ccc21	18.9	100	98.3	–	–
C[C@H]1CCCN1Cc1nc2cc(NC(=O)c3ccc4c(cnn4CCN4CC5OC(C)(C)OC5C4C4COC(C)(C)O4)c3)ccc2[nH]1 (stereo partly specified)	56.4	99.6	89	–	–
